Counter-ions that a name gives are not always drawn.
Experiments:
[1] = Wistar rats
[2] = in vivo; cited from earlier work
[3] = 1 mg/kg bolus iv (jugular vein), serum, HPLC-MS/MS, mean ± SD, n = 6 rats, SD
[4] = 1 mg/kg bolus iv, mean ± SD, n = 6 rats, SD

SMILES	Cmax, Serum [1, 3]	Tmax, Serum [1, 3]	delay in time to peak vancomycin concentration (Tmax) in ISF compared to serum ([1]; 1 mg/kg bolus iv, Student's t-test p < 0.05)	AUC Ratio (ISF:serum) [1, 4]	Cmax Ratio (ISF:serum) [1, 4]	Tmax Ratio (ISF:serum) [1, 4]	detection in ISF [2]
CN[C@H](CC(C)C)C(=O)N[C@H]1C(=O)N[C@@H](CC(N)=O)C(=O)N[C@H]2C(=O)N[C@H]3C(=O)N[C@H](C(=O)N[C@H](C(=O)O)c4cc(O)cc(O)c4-c4cc3ccc4O)[C@H](O)c3ccc(c(Cl)c3)Oc3cc2cc(c3O[C@@H]2O[C@H](CO)[C@@H](O)[C@H](O)[C@H]2O[C@H]2C[C@](C)(N)[C@H](O)[C@H](C)O2)Oc2ccc(cc2Cl)[C@H]1O [vancomycin, Vancomycin hydrochloride]	2600 ± 600 ng/mL	10 ± 0 min	~ 17 min	1.3 ± 0.2	0.9 ± 0.2	2.7 ± 1.6	–
O=C1NC(=O)C(c2ccccc2)(c2ccccc2)N1 [phenytoin]	–	–	–	–	–	–	not detectable

From paper PMC6533066 (Biomedical microdevices, 2019)
